Tests used:
Type in all cases: in vivo
morning glory = test: Greenhouse trial: castor oil ethoxylate derivatives with glyphosate, morning glory (Example 25); details: 300 g ae/HA glyphosate; 4 weeks after treatment; ranking from picture
Description: (§1) A greenhouse trial was conducted by spraying solutions of 300 g ae/HA of IPA-glyphosate on wheat. The glyphosate formulation was based on 360 g/L IPA containing 10% active surfactant. Wheat was used as the “weed” because it germinates smoothly and it is a good species for herbicide study. The untreated check (UTC) was sprayed with only water. Pot 150 was sprayed with glyphosate only solution. Pot 149 was sprayed with glyphosate solution containing tallowamine-15EO (TAE15). TAE15 is the most common surfactant used to enhance glyphosate efficacy.
The condition and treatment of example 25 was identical to example 23 except that example 25 used morning glory instead of wheat.

wheat [1] = test: Greenhouse trial: bioefficacy enhancing effect of surfactants on glyphosate, wheat (Example 23); details: 300 g ae/HA IPA-glyphosate sprayed on wheat; 360 g/L IPA formulation with 10% active surfactant; 4 weeks after treatment; from fresh weight
Description: as §1
Plants were sprayed with glyphosate solutions containing surfactant according to the present invention. Table below lists the various surfactants and their corresponding pots. Percent growth control data for 4 weeks after treatment is also shown in this table as well. Percent growth control data was obtained from the fresh weight of these plants. The data clearly indicates glyphosate solutions containing surfactant according to the present invention provides better growth control than glyphosate only, thus acting as an adjuvant. In many cases the adjuvancy is equal to that of TAE15.

wheat [2] = test: Greenhouse trial: hydroxylated soybean oil derivatives with glyphosate, wheat, visual inspection (Example 24); details: 300 g ae/HA IPA-glyphosate sprayed on wheat, 10% active surfactant, 4 weeks after treatment
Description: as §1
A separate set of test was conducted for these surfactants. The condition and treatment of example 24 was identical to example 23. […] In this case % growth control is a qualitative data obtained by visual inspection of the plants. The data clearly indicates glyphosate solutions containing surfactant according to the present invention provides enhanced growth control than glyphosate only, thus acting as an adjuvant.

CC(C)N.O=C(O)CNCP(=O)(O)O [IPA Glyphosate alone, IPA-glyphosate]
morningglory control compared with tallowamine-15EO (morning glory): didn't show much control | % Growth Control (wheat [1]): 66% | % Growth Control (qualitative) (wheat [2]): 55%

— patent US10000437B2, “Nitrogen containing surfactants with alkoxylation on the hydroxyl group of fatty chains” (Akzo Nobel Chemicals International B.V., priority 2013, dated 2018)
